Results from paper PMC3445516 (PLoS ONE, 2012).
Read-outs that look alike come from different tables or passages of the source.

Legend:
Assay in all cases: Ambit kinase profiling, competition binding
EGFR(S752-I759del) = target: T1, EGFR(S752-I759del) (Homo sapiens, UniProt P00533, DEL752-759); details: for % Competition: 10 µM
T1 construct: purchased Ambit Biosciences (KINOMEscan)
Description: (§1) Also included in the kinase profile are four isoforms of PKC (δ, ε, η, θ) and eight isoforms of CAMKs (CAMKIα, δ, γ; CAMKIIα, β, δ, γ; CAMK4).
(§2) The global kinase profiling experiment was performed by Ambit Biosciences.

PLK4 = target: T2, PLK4 (Homo sapiens, UniProt O00444)
T2 construct: purchased Ambit Biosciences (KINOMEscan)
T2 sequence (O00444 1-970): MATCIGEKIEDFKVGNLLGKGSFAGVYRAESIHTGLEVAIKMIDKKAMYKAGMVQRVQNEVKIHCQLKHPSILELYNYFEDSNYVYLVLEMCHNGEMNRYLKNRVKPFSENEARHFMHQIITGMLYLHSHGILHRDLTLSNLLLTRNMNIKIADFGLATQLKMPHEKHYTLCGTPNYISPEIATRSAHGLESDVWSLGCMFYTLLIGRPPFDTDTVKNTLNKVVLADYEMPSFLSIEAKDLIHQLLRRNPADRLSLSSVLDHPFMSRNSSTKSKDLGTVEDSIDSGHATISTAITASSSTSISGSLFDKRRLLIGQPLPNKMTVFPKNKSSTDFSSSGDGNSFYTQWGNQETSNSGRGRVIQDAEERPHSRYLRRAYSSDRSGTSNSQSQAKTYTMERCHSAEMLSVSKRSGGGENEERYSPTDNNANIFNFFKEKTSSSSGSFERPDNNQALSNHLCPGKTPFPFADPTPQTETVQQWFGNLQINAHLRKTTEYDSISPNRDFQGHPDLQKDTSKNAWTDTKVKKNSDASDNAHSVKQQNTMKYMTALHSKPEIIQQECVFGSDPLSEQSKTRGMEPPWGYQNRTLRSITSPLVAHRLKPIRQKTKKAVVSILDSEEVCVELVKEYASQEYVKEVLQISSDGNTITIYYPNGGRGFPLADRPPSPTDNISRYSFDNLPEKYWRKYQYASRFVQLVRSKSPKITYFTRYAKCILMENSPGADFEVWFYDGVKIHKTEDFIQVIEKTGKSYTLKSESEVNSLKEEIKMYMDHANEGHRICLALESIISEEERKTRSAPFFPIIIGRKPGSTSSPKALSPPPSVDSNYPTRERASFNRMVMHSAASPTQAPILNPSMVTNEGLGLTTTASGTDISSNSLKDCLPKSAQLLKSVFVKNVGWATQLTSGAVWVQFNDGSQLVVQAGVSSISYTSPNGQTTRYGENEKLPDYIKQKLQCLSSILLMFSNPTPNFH
Description: as §1, §2

LATS2 = target: T3, LATS2 (Homo sapiens, UniProt Q9NRM7); details: for % Competition: 10 µM
T3 construct: purchased Ambit Biosciences (KINOMEscan)
T3 sequence (Q9NRM7 1-1088): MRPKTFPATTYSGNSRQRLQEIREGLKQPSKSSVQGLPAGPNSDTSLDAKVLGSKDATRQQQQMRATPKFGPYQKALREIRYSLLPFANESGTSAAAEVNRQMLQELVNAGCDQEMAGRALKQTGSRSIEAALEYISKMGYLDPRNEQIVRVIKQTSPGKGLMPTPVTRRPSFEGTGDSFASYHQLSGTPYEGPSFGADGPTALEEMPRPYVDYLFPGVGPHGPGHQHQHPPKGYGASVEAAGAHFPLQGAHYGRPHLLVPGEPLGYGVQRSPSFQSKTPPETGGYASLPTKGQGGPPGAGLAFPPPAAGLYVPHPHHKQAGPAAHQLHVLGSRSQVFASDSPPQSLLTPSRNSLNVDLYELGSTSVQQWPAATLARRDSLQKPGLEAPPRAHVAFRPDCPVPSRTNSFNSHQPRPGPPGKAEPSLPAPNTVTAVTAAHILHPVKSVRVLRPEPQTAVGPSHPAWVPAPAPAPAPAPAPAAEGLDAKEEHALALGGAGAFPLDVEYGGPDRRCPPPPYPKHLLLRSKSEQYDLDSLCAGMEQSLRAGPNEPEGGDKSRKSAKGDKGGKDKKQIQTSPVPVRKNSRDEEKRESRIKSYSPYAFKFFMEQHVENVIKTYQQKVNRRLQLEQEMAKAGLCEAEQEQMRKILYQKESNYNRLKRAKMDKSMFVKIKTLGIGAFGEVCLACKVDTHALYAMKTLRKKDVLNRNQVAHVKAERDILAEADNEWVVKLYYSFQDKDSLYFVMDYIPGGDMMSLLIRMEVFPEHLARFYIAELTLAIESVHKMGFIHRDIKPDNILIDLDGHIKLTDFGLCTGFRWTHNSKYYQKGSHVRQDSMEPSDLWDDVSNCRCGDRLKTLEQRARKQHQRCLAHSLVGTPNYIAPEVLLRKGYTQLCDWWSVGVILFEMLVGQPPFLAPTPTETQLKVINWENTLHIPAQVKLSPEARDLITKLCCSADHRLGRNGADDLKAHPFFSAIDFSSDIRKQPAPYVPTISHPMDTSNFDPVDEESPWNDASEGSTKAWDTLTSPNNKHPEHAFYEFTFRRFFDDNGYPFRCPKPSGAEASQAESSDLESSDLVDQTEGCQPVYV
Description: as §1, §2

BMPR1B = target: T4, BMPR1B (Homo sapiens, UniProt O00238)
T4 construct: purchased Ambit Biosciences (KINOMEscan)
Description: as §1, §2

p38-delta = target: T5, p38-delta (Homo sapiens, UniProt O15264)
T5 construct: purchased Ambit Biosciences (KINOMEscan)
T5 sequence (O15264 1-365): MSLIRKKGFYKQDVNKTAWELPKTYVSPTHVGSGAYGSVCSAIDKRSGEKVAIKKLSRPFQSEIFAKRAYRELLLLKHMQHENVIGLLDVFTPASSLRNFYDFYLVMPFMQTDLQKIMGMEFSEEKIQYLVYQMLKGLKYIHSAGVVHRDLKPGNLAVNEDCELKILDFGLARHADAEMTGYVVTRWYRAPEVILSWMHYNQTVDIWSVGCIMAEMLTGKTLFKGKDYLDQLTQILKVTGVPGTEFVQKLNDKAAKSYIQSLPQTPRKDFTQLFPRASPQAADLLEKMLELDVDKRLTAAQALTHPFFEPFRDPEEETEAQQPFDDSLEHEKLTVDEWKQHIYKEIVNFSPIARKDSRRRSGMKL
Description: as §1, §2

T4 sequence (O00238 14-502): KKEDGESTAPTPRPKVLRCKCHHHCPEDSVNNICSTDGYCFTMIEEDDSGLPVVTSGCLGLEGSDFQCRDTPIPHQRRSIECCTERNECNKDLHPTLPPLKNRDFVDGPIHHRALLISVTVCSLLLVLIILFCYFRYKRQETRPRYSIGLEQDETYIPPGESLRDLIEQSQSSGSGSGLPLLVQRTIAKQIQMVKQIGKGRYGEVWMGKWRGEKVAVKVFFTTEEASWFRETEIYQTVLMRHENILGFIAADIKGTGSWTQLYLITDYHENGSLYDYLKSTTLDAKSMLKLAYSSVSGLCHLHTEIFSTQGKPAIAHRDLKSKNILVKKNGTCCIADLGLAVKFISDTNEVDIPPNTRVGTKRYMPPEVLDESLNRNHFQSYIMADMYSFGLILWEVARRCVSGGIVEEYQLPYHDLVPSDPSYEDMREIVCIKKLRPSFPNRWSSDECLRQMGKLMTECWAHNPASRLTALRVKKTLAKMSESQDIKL

inhibition at 10 µM (PLK4; PLK4, 10 µM, read-out: % Competition) [%] | inhibition at 10 µM (BMPR1B; BMPR1B, 10 µM, read-out: % Competition) [%] | inhibition at 10 µM (p38-delta; 10 µM, read-out: % Competition) [%] | Percent Competition (EGFR(S752-I759del); compound concentration 10 uM) [%] | inhibition at 10 µM (PLK4; PLK4, compound concentration 10 uM, read-out: Percent Competition) [%] | Percent Competition (LATS2; compound concentration 10 uM) [%] | inhibition at 10 µM (BMPR1B; BMPR1B, compound concentration 10 uM, read-out: Percent Competition) [%] | inhibition at 10 µM (p38-delta; compound concentration 10 uM, read-out: Percent Competition) [%] | SMILES | % Competition (EGFR(S752-I759del)) [%] | % Competition (LATS2) [%] | inhibition at 10 µM (PLK4; read-out: % Competition) [%] | inhibition at 10 µM (BMPR1B; read-out: % Competition) [%] | % Competition (p38-delta; 10 µM) [%]
98 | 81 | 82 |  |  |  |  |  | Fc1ccc(-c2c(-c3ccncc3)[nH]c3nccnc23)cc1 [Compound 122] | 98 | 82 |  |  | 
 |  |  |  |  |  |  |  | CC(O)CNc1cc(-c2[nH]c3cccnc3c2-c2ccc(F)cc2)ccn1 (stereo not drawn) [Compound 140] | 91 | <50 | < 50 | < 50 | <50
 |  |  | 98 | 98 | 82 | 81 | 82 | Fc1ccc(-c2c(-c3ccncc3)[nH]c3nccnc23)cc1 [RO1155697-000-005] |  |  |  |  | 
